The source made the active and inactive calls. The rule behind the calls is not given here.
Experiments:
MCF7 [1] = assay: Cell cycle arrest in human MCF7 cells assessed as accumulation at G0 phase at 4 uM after 24 hrs by propidium iodide staining-based flow cytometric analysis (reference value: 3.36%); assay type: functional
MCF7 [2] = assay: Induction of apoptosis in human MCF7 cells assessed as increase in P21 tumor suppressor protein expression at 4 uM after 24 hrs by Western blot analysis; assay type: functional, cell-based
MCF7 [3] = assay: Cell cycle arrest in human MCF7 cells assessed as accumulation at G0 phase at 2 uM after 24 hrs by propidium iodide staining-based flow cytometric analysis (reference value: 3.36%); assay type: functional
MCF7 [4] = assay: Induction of apoptosis in human MCF7 cells assessed as increase in P53 tumor suppressor protein expression at 4 uM after 24 hrs by ELISA; assay type: functional, cell-based
MCF7 [5] = assay: Induction of apoptosis in human MCF7 cells assessed as decrease in cyclin D1 expression at 4 uM after 24 hrs by Western blot analysis; assay type: functional, cell-based
MCF7 [6] = assay: Cell cycle arrest in human MCF7 cells assessed as accumulation at G1 phase at 4 uM after 24 hrs by propidium iodide staining-based flow cytometric analysis (reference value: 56.48%); assay type: functional
MCF7 [7] = assay: Induction of apoptosis in human MCF7 cells assessed as decrease in PARP protein expression at 4 uM after 24 hrs by Western blot analysis; assay type: functional, cell-based
MCF7 [8] = assay: Induction of DNA in human MCF7 cells assessed as increase in phosphorylated gamma-H2AX foci formation measured by immunoflourosence microscopy relative to control; assay type: functional
MCF7 [9] = assay: Cell cycle arrest in human MCF7 cells assessed as accumulation at G2/M phase at 4 uM after 24 hrs by propidium iodide staining-based flow cytometric analysis (reference value: 27.93%); assay type: functional
MCF7 [10] = assay: Cell cycle arrest in human MCF7 cells assessed as accumulation at G2/M phase at 2 uM after 24 hrs by propidium iodide staining-based flow cytometric analysis (reference value: 27.93%); assay type: functional
MCF7 [11] = assay: Induction of apoptosis in human MCF7 cells assessed as increase in active caspase 9 at 4 uM after 24 hrs by Western blot analysis; assay type: functional, cell-based
MCF7 [12] = assay: Cytotoxicity against human MCF7 cells assessed as reduction cell viability after 24 hrs by MTT assay; assay type: functional, cell-based; conditions: MCF7, 24 h
MCF7 [13] = assay: Cell cycle arrest in human MCF7 cells assessed as accumulation at S phase at 2 uM after 24 hrs by propidium iodide staining-based flow cytometric analysis (reference value: 12.23%); assay type: functional
MCF7 [14] = assay: Cell cycle arrest in human MCF7 cells assessed as accumulation at S phase at 4 uM after 24 hrs by propidium iodide staining-based flow cytometric analysis (reference value: 12.23%); assay type: functional
MCF7 [15] = assay: Cell cycle arrest in human MCF7 cells assessed as accumulation at G1 phase at 2 uM after 24 hrs by propidium iodide staining-based flow cytometric analysis (reference value: 56.48%); assay type: functional
DNA = assay: Binding affinity to calf thymus DNA assessed as change in melting temperature at 1:5 drug/DNA ratio at 37 degC after 18 hrs by spectrophotometry; assay type: nucleic-acid assay; conditions: Bos taurus
MCF7 [16] = assay: Induction of apoptosis in human MCF7 cells assessed as increase in P53 tumor suppressor protein expression at 4 uM after 24 hrs by Western blot analysis; assay type: functional, cell-based

Compound	Activity (MCF7 [1]) [%]	Activity (MCF7 [2])	Activity (MCF7 [3]) [%]	Activity (MCF7 [4])	inhibition (MCF7 [5])	Activity (MCF7 [6]) [%]	inhibition (MCF7 [7])	Activity (MCF7 [8]) [%]	Activity (MCF7 [9]) [%]	Activity (MCF7 [10]) [%]	Activity (MCF7 [11])	IC50 (MCF7 [12]) [µM]	Activity (MCF7 [13]) [%]	Activity (MCF7 [14]) [%]	Activity (MCF7 [15]) [%]	ΔTm (DNA) [°C]	Activity (MCF7 [16])
COc1cc2c(cc1OCCCCCN1CCN(C(=O)c3nc(-c4ccc(C(F)(F)F)cc4)n4ccccc34)CC1)N=C[C@@H]1CCCN1C2=O	17.13	Active	5.7	Active	Active	49.66	Active	80	25.32	41.41	Active	3.16	8.48	6.9	44.41	10.2	Active
COc1ccc(-c2nc(C(=O)N3CCN(CCCCCCOc4cc5c(cc4OC)C(=O)N4CCC[C@H]4C=N5)CC3)c3ccccn23)cc1	13.33	–	5.39	–	–	54.67	–	–	23.56	40.53	–	3.68	13.2	8.44	41.06	8.9	–
COc1cc2c(cc1OCCCCCCN1CCN(C(=O)c3nc(-c4ccccc4)n4ccccc34)CC1)N=C[C@@H]1CCCN1C2=O	7.79	–	4.08	–	–	55.54	–	–	20.15	39.25	–	3.74	10.52	16.52	43.15	8	–
O=C(O)c1nc(-c2ccc(C(F)(F)F)cc2)n2ccccc12	–	–	–	–	–	–	–	–	–	–	–	–	–	–	–	0.3	–
COc1ccc(-c2nc(C(=O)N3CCN(CCCOc4cc5c(cc4OC)C(=O)N4CCC[C@H]4C=N5)CC3)c3ccccn23)cc1	6	–	3.56	–	–	66.92	–	–	13.27	31.44	–	6	19.65	13.81	45.35	8.8	–
COc1cc2c(cc1OCCCCN1CCN(C(=O)c3nc(-c4ccc(C(F)(F)F)cc4)n4ccccc34)CC1)N=C[C@@H]1CCCN1C2=O	15.19	Active	3.64	Active	Active	57.32	Active	–	18.71	41.29	Active	3.26	12.14	8.78	42.94	10	Active
COc1ccc(-c2nc(C(=O)N3CCN(CCCCOc4cc5c(cc4OC)C(=O)N4CCC[C@H]4C=N5)CC3)c3ccccn23)cc1	7.01	–	4.51	–	–	59.03	–	–	22.9	34.52	–	4.17	9.89	14.04	51.08	9.9	–
COc1cc2c(cc1OCCCCCCN1CCN(C(=O)c3nc(-c4ccc(C(F)(F)F)cc4)n4ccccc34)CC1)N=C[C@@H]1CCCN1C2=O	7.14	–	3.66	–	–	52.13	–	–	30.79	34.09	–	4.28	9.33	9.94	52.92	8.7	–
COc1cc2c(cc1OCCCCCN1CCN(C(=O)c3nc(-c4ccccc4)n4ccccc34)CC1)N=C[C@@H]1CCCN1C2=O	7.6	–	4.49	–	–	51.6	–	–	30.74	36.5	–	4.16	9.84	10	49.16	9	–
O=C(c1nc(-c2ccc(C(F)(F)F)cc2)n2ccccc12)N1CCNCC1	–	–	–	–	–	–	–	–	–	–	–	–	–	–	–	2.5	–
COc1cc2c(cc1OCCCCN1CCN(C(=O)c3nc(-c4ccccc4)n4ccccc34)CC1)N=C[C@@H]1CCCN1C2=O	5.47	–	2.8	–	–	63.74	–	–	20.95	31.3	–	7.18	17.03	9.85	48.87	8.9	–
COc1cc2c(cc1OCCCN1CCN(C(=O)c3nc(-c4ccc(C(F)(F)F)cc4)n4ccccc34)CC1)N=C[C@@H]1CCCN1C2=O	6.23	–	4.52	–	–	69.36	–	–	14.71	32.52	–	5.74	10.34	9.7	52.63	8.8	–
COc1ccc(-c2nc(C(=O)N3CCN(CCCCCOc4cc5c(cc4OC)C(=O)N4CCC[C@H]4C=N5)CC3)c3ccccn23)cc1	6.07	–	5.57	–	–	53.22	–	–	30.3	31.61	–	5.67	10.06	10.42	52.76	9.9	–
COc1cc2c(cc1OCCCN1CCN(C(=O)c3nc(-c4ccccc4)n4ccccc34)CC1)N=C[C@@H]1CCCN1C2=O	5.23	–	4.26	–	–	54.44	–	–	30.14	28.35	–	7.21	11.86	10.19	55.54	8.9	–
COc1cc2c(cc1O)N=C[C@@H]1CCCN1C2=O	5.33	Active	2.83	Active	–	54.08	–	–	26.83	27.28	–	5	16.13	13.76	53.76	0.7	Active

Reference: ChEMBL document CHEMBL3132779, “Design, synthesis and biological evaluation of imidazo[1,5-a]pyridinePBD conjugates as potential DNA-directed alkylating agents” (Medchemcomm, 2013)
